This test concerns P388 leukemia ip, CD2F1 mice, survival T/C. As to the kind of experiment: NCI In Vivo Anticancer Drug Screen. Data for tumor model P388 Leukemia (intraperitoneal) in CD2F1 (CDF1) mice. The conditions noted are these: endpoint: median survival time, higher = longer survival. In outline:
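Mice carrying the transplanted tumor received test compound or vehicle. Survival was recorded in each group, and the value is the treated-group measurement divided by that of the vehicle-treated control group.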

Setting [1] is: dose: 25.0 mg/kg/injection, schedule: Q01DX009 (ip), vehicle: Klucel (hydroxypropylcellulose) (HPC).
[2] abbreviates: dose: 50.0 mg/kg/injection, schedule: Q01DX009 (ip), vehicle: Klucel (hydroxypropylcellulose) (HPC).
Setting [3] is: dose: 100.0 mg/kg/injection, schedule: Q01DX009 (ip), vehicle: Klucel (hydroxypropylcellulose) (HPC).
[4] abbreviates: dose: 50.0 mg/kg/injection, schedule: Q01DX005 (ip), vehicle: Klucel (hydroxypropylcellulose) (HPC).
The mark [5] stands for this setting: dose: 100.0 mg/kg/injection, schedule: Q01DX005 (ip), vehicle: Klucel (hydroxypropylcellulose) (HPC).
Setting [6] is: dose: 200.0 mg/kg/injection, schedule: Q01DX005 (ip), vehicle: Klucel (hydroxypropylcellulose) (HPC).
Where [7] appears, read: dose: 30.0 mg/kg/injection, schedule: Q01DX005 (ip), vehicle: Klucel (hydroxypropylcellulose) (HPC).
[8] abbreviates: dose: 60.0 mg/kg/injection, schedule: Q01DX005 (ip), vehicle: Klucel (hydroxypropylcellulose) (HPC).
Where [9] appears, read: dose: 60.0 mg/kg/injection, schedule: Q01DX005 (ip), vehicle: saline with Tween-80.
[10] abbreviates: dose: 120.0 mg/kg/injection, schedule: Q01DX005 (ip), vehicle: saline with Tween-80.
[11] abbreviates: dose: 240.0 mg/kg/injection, schedule: Q01DX005 (ip), vehicle: saline with Tween-80.
The mark [12] stands for this setting: dose: 12.5 mg/kg/injection, schedule: Q01DX009 (ip), vehicle: other.
Where [13] appears, read: dose: 25.0 mg/kg/injection, schedule: Q01DX009 (ip), vehicle: other.
Where [14] appears, read: dose: 50.0 mg/kg/injection, schedule: Q01DX009 (ip), vehicle: other.

Where “and” joins values, the source holds several entries; their conditions need not be identical. Equal entries are not always repeated. Inconclusive results and toxic doses are left out.

T/C data for 21 compounds are collected here from PubChem BioAssay AID330 (DTP/NCI, 2004).

Take `c1c[n+](CC2CO2)ccc1-c1cc[n+](CC2CO2)cc1` (stereo unspecified): the T/C under setting [1] was 120 % of control; the T/C (dose: 40.0 mg/kg/injection, schedule: Q01DX009 (ip), vehicle: Klucel (hydroxypropylcellulose) (HPC)) is 162 % of control; the T/C under setting [2] is 163 % of control; the T/C (dose: 80.0 mg/kg/injection, schedule: Q01DX009 (ip), vehicle: Klucel (hydroxypropylcellulose) (HPC)) is 159 % of control; the T/C under setting [3] is 161 % of control.

`CC(=O)OCC1Cn2c(c(-c3ccccc3)c(=O)[nH]c2=S)O1` (stereo unspecified): the T/C runs as follows: (dose: 100.0 mg/kg/injection, schedule: Q04DX002 (ip), vehicle: Klucel (hydroxypropylcellulose) (HPC)) 106 % of control; (dose: 200.0 mg/kg/injection, schedule: Q04DX002 (ip), vehicle: Klucel (hydroxypropylcellulose) (HPC)) 107 % of control; (dose: 400.0 mg/kg/injection, schedule: Q04DX002 (ip), vehicle: Klucel (hydroxypropylcellulose) (HPC)) 110 % of control.

Turning to `CCO/C(=N/S(C)(=O)=O)NO`, the T/C under setting [4] is 102 % of control, the T/C under setting [5] is 106 % of control and the T/C under setting [6] is 102 % of control.

As for `COC1OC(COC(=O)c2ccccc2)C(=O)C(OC(=O)c2ccccc2)C1N(O)c1ccccc1` (stereo unspecified), the T/C is, setting by setting: (dose: 7.5 mg/kg/injection, schedule: Q01DX005 (ip), vehicle: Klucel (hydroxypropylcellulose) (HPC)) 99 % of control; (dose: 15.0 mg/kg/injection, schedule: Q01DX005 (ip), vehicle: Klucel (hydroxypropylcellulose) (HPC)) 104 % of control; under setting [7], 95 % of control.

`O=c1c2ccccc2sc2cccc(NCCCN3CCN(CCCNc4cccc5sc6ccccc6c(=O)c45)CC3)c12`: the T/C runs as follows: (dose: 0.5 mg/kg/injection, schedule: Q01DX005 (ip), vehicle: saline with Tween-80) 100 % of control; (dose: 1.0 mg/kg/injection, schedule: Q01DX005 (ip), vehicle: saline with Tween-80) 99 % of control; (dose: 2.0 mg/kg/injection, schedule: Q01DX005 (ip), vehicle: saline with Tween-80) 99 % of control; (dose: 4.0 mg/kg/injection, schedule: Q01DX005 (ip), vehicle: saline with Tween-80) 95 % of control; (dose: 8.0 mg/kg/injection, schedule: Q01DX005 (ip), vehicle: saline with Tween-80) 88 % of control.

Regarding `Oc1ccc(O)c2nc3ccccc3nc12`, the T/C is 104 % of control (dose: 1.56 mg/kg/injection, schedule: Q01DX009 (ip), vehicle: distilled water + Tween-80); 105 % of control (dose: 3.12 mg/kg/injection, schedule: Q01DX009 (ip), vehicle: distilled water + Tween-80); 104 % of control and 97 % of control (dose: 6.25 mg/kg/injection, schedule: Q01DX009 (ip), vehicle: distilled water + Tween-80).

With `CN(C)c1ccc(/C=N/O)cc1`, the T/C is 86 % of control (dose: 12.5 mg/kg/injection, schedule: Q01DX009 (ip), vehicle: Klucel (hydroxypropylcellulose) (HPC)); 101 % of control and 103 % of control and 110 % of control under setting [1]; 103 % of control and 113 % of control under setting [2]; 104 % of control and 113 % of control under setting [3]; 96 % of control (dose: 200.0 mg/kg/injection, schedule: Q01DX009 (ip), vehicle: Klucel (hydroxypropylcellulose) (HPC)).

Consider `CCCCN=C1Nc2nc(=NCCCC)nc3c(Br)cc(Br)c(n23)N1`, for which the T/C (dose: 0.18 mg/kg/injection, schedule: Q01DX005 (ip), vehicle: Klucel (hydroxypropylcellulose) (HPC)) is 101 % of control; the T/C (dose: 0.37 mg/kg/injection, schedule: Q01DX005 (ip), vehicle: Klucel (hydroxypropylcellulose) (HPC)) was 97 % of control; the T/C (dose: 0.75 mg/kg/injection, schedule: Q01DX005 (ip), vehicle: Klucel (hydroxypropylcellulose) (HPC)) is 94 % of control; the T/C under setting [7] was 86 % of control; the T/C under setting [8] was 87 % of control and 89 % of control.

Turning to `COC(=O)c1ccccc1NC(=NC(C)(C)C)c1ccccc1`, the T/C is 98 % of control (dose: 50.0 mg/kg/injection, schedule: Q01DX009 (ip), vehicle: saline with Tween-80); 98 % of control (dose: 100.0 mg/kg/injection, schedule: Q01DX009 (ip), vehicle: saline with Tween-80); 91 % of control (dose: 200.0 mg/kg/injection, schedule: Q01DX009 (ip), vehicle: saline with Tween-80).

Turning to `Nc1cc(Cl)cc2c1-c1ccc(Cl)cc1C2`, the T/C is 93 % of control under setting [4], 93 % of control under setting [5] and 94 % of control under setting [6].

As for `CC(=O)C[C@H](c1ccccc1)c1ccccc1[C@H](C)N(C)C`, the T/C reads like this: under setting [9], 106 % of control; under setting [10], 104 % of control.

On to `C[Si](C)(CNCCN)c1ccccc1`, for which the T/C reads like this: under setting [9], 101 % of control; (dose: 60.0 mg/kg/injection, schedule: Q01DX005 (ip), vehicle: saline) 91 % of control; under setting [10], 105 % of control; (dose: 120.0 mg/kg/injection, schedule: Q01DX005 (ip), vehicle: saline) 93 % of control; under setting [11], 101 % of control.

As for `CC1(OC(=O)c2ccc(F)cc2)CC(C)(C)[N+]([O-])=N1` (stereo unspecified), the T/C is, setting by setting: under setting [12], 113 % of control; under setting [13], 101 % of control; under setting [14], 118 % of control; (dose: 100.0 mg/kg/injection, schedule: Q01DX009 (ip), vehicle: other) 118 % of control; (dose: 200.0 mg/kg/injection, schedule: Q01DX009 (ip), vehicle: other) 123 % of control.

In the case of `COc1cccc2c1C(=O)c1c(O)c3c(c(O)c1C2=O)CC(O)(c1csc(N)n1)CC3O` (stereo unspecified), the T/C by setting is: (dose: 1.56 mg/kg/injection, schedule: Q01DX009 (ip), vehicle: other) 100 % of control; (dose: 3.13 mg/kg/injection, schedule: Q01DX009 (ip), vehicle: other) 107 % of control; (dose: 6.25 mg/kg/injection, schedule: Q01DX009 (ip), vehicle: other) 101 % of control; under setting [12], 108 % of control; under setting [13], 107 % of control; under setting [14], 108 % of control.

With `C/C(=N\NC(N)=Nc1ccccc1)c1ccc(Cl)c(Cl)c1`, the T/C reads like this: (dose: 25.0 mg/kg/injection, schedule: Q04DX002 (ip), vehicle: saline with Tween-80) 100 % of control; (dose: 50.0 mg/kg/injection, schedule: Q04DX002 (ip), vehicle: saline with Tween-80) 101 % of control; (dose: 100.0 mg/kg/injection, schedule: Q04DX002 (ip), vehicle: saline with Tween-80) 110 % of control.

Regarding `O=[N+]([O-])c1ccc(/C(=C/c2ccc(F)cc2)S(=O)(=O)c2ccccc2)o1`, the T/C is 97 % of control (dose: 50.0 mg/kg/injection, schedule: Q01DX009 (ip), vehicle: suspension in saline) and 88 % of control (dose: 100.0 mg/kg/injection, schedule: Q01DX009 (ip), vehicle: suspension in saline).

On to `CN(C)CC1=Nc2cccc3cccc(c23)N1`, for which the T/C under setting [9] was 102 % of control and the T/C under setting [10] is 106 % of control.

`CC1SC2(C(=O)Nc3ccccc32)N(c2ccc(O)cc2)C1=O` (stereo unspecified): the T/C under setting [8] is 91 % of control; the T/C (dose: 120.0 mg/kg/injection, schedule: Q01DX005 (ip), vehicle: Klucel (hydroxypropylcellulose) (HPC)) is 100 % of control; the T/C (dose: 240.0 mg/kg/injection, schedule: Q01DX005 (ip), vehicle: Klucel (hydroxypropylcellulose) (HPC)) was 94 % of control.

Take `CCOC(=O)C(NC(C)=O)(C(=O)OCC)c1ccc(Cl)cn1`: the T/C runs as follows: (dose: 100.0 mg/kg/injection, schedule: Q04DX003 (ip), vehicle: saline) 103 % of control; (dose: 200.0 mg/kg/injection, schedule: Q04DX003 (ip), vehicle: saline) 100 % of control; (dose: 400.0 mg/kg/injection, schedule: Q04DX003 (ip), vehicle: saline) 95 % of control.

Turning to `O=C1CC2CCC1(CS(=O)(=O)OCCCCOS(=O)(=O)CC13CCC(CC1=O)C3)C2`, the T/C is 103 % of control under setting [9], 103 % of control under setting [10] and 93 % of control under setting [11].

With `O=CNc1c(Br)cc2c(c1Br)Cc1cc([N+](=O)[O-])ccc1-2`, the T/C reads like this: (dose: 6.25 mg/kg/injection, schedule: Q01DX009 (ip), vehicle: saline) 97 % of control; (dose: 12.5 mg/kg/injection, schedule: Q01DX009 (ip), vehicle: saline) 90 % of control; (dose: 25.0 mg/kg/injection, schedule: Q01DX009 (ip), vehicle: saline) 92 % of control; (dose: 50.0 mg/kg/injection, schedule: Q01DX009 (ip), vehicle: saline) 89 % of control.
